Data from US20170312260A1 (LAUNX BIOMEDICAL CO., LTD., priority 2014, published 2017).
Like-named read-outs stand apart in the source and are kept apart here.

Key:
Type in all cases: cell-based
[1] = test system: A549 (lung adenocarcinoma); experiment: WST-1 cell viability analysis, A549; conditions: Homo sapiens
Method: (§1) The cell numbers were counted and reseed as 2×10^6 in cell culture plate/flask. Then, the culture medium were added to a volume of 10 ml, and the cells were cultured for 2-3 days. Then, the cells were suspended for loading into 96-well plates. The number of cells was 3000 and the volume of the culture medium was 100 μl each well.
(§2) Removing the original culture medium from 96-well plate. Then add 100 μl of commercially drug at a concentration of 10 μM per well. After 72 hours, add the diluted WST-1 reagent to the well with 100 μl/well, and the diluted WST-1 reagent was acquired from the dilution of 9:1 medium and WST-1 stock reagent. Finally, the total volume of each well was 200 μl/well. Culture the 96-well plate at 37° C. for 30 to 90 minutes. Detecting and calculate the survival rate of each cancer cells with an ELISA reader at OD450 nm.

[2] = test system: C-33A (Cervical carcinoma); experiment: WST-1 cell viability analysis, C-33A; conditions: Homo sapiens, 72 hours, read-out: viability (survival rate) of C-33A cells
Method: as §1, §2

[3] = test system: 786-O (Renal adenocarcinoma); experiment: WST-1 cell viability analysis, 786-O; conditions: Homo sapiens
Method: as §1, §2

[4] = test system: breast cancer cell line MDA-MB-231; experiment: WST-1 cell viability analysis, MDA-MB-231; conditions: Homo sapiens
[5] = test system: Hep3B (hepatocellular carcinoma); experiment: WST-1 cell viability analysis, Hep3B; conditions: Homo sapiens
Method: as §1, §2

[6] = test system: pancreatic cancer cell line BxPC-3; experiment: WST-1 cell viability analysis, BxPC-3; conditions: Homo sapiens, BXPC-3, 10 μM, 72 hours, read-out: viability (survival rate) of BxPC-3 cells
Method: as §1, §2

[7] = test system: osteosarcoma cell line U2OS; experiment: WST-1 cell viability analysis, U2OS; conditions: Homo sapiens
Method: as §1, §2

[8] = test system: BCC (basal cell carcinoma); experiment: WST-1 cell viability analysis, BCC; conditions: 72 hours, read-out: viability (survival rate) of BCC cells
[9] = WST-1 cell viability analysis, HEK293; conditions: human
Method: as §1, §2

cancers cell lines = experiment: Inhibition test on all kinds of cancer cell lines (overall statement); conditions: several / various cancer cell lines, Table 18, FIG. 1
Method: as §1, §2
As a result in the experiments of the present invention.

normal cells = experiment: Toxicity to normal cells (overall statement)
Source text: Subculture the different types of cancer cell lines. The cancer cells includes lung cancer, gastric cancer, hepatic cancer, colon cancer, skin cancer, cervical cancer, prostate cancer, bladder cancer, breast cancer, leukemia, pancreatic cancer, ovarian cancer, tongue cancer, osteosarcoma, and renal cancer. The normal cells used in the control group included kidney cell (HEK293) and human bronchial epithelial cell line BEAS-2B (as shown in Table 1).
as §2

Question: Which results are given for `CC1=C(C(=O)OC(C)C)C(c2cccc([N+](=O)[O-])c2)C(C(=O)OC2CN(C(c3ccccc3)c3ccccc3)C2)=C(N)N1` (stereo not drawn) [Azelnidipine]?
Answer: viability at 10 µM ([1]; A549, 10 μM, 72 hours, run 0524-10 min, read-out: viability (survival rate) of A549 cells): 81.4%; viability at 10 µM ([1]; A549, 10 μM, 72 hours, run 0526-10 min, read-out: viability (survival rate) of A549 cells): 119%; viability at 10 µM ([1]; A549, 10 μM, 72 hours, run 0529-10 min, read-out: viability (survival rate) of A549 cells): 69.7%; viability at 10 µM ([1]; A549, 10 μM, 72 hours, run 0531-10 min, read-out: viability (survival rate) of A549 cells): 80.2%; viability at 10 µM ([1]; A549, 72 h, 10 μM, average of 4 tests, read-out: Average viability of A549 cells): 87.5%; viability at 10 µM ([2]; run 0524-10 min): 142%; viability at 10 µM ([2]; run 0526-10 min): 111%; viability at 10 µM ([2]; run 0529-10 min): 123%; viability at 10 µM ([2]; run 0531-10 min): 117%; viability at 10 µM ([3]; 786-0, 10 μM, 72 hours, run 0524-10 min, read-out: viability (survival rate) of 786-O cells): 88.6%; viability at 10 µM ([3]; 786-0, 10 μM, 72 hours, run 0526-10 min, read-out: viability (survival rate) of 786-O cells): 79.7%; viability at 10 µM ([3]; 786-0, 10 μM, 72 hours, run 0529-10 min, read-out: viability (survival rate) of 786-O cells): 66.5%; viability at 10 µM ([3]; 786-0, 10 μM, 72 hours, run 0531-10 min, read-out: viability (survival rate) of 786-O cells): 112%; viability at 10 µM ([3]; 786-0, 72 h, 10 μM, average of 4 tests, read-out: average viability of 786-O cells): 86.8%; viability at 10 µM ([3]; 786-0, 72 h, 10 μM, summary (786-O), read-out: Inhibitory effect, Kidney cancer): 86.8%; viability at 10 µM ([4]; MDA-MB-231, 10 μM, 72 hours, run 0612-10 min, read-out: viability (survival rate) of MDA-MB-231 cells): 70.3%; viability at 10 µM ([4]; MDA-MB-231, 10 μM, 72 hours, run 0614-10 min, read-out: viability (survival rate) of MDA-MB-231 cells): 89.7%; viability at 10 µM ([4]; MDA-MB-231, 72 h, 10 μM, average of the 3 printed tests, read-out: average viability of MDA-MB-231 cells): 86.9%; viability at 10 µM ([5]; 72 h, average of 4 tests, read-out: Average viability of Hep3B cells): 98.6%; viability at 10 µM ([5]; 72 hours, run 0612-20 min, read-out: viability (survival rate) of Hep3B cells): 114%; viability at 10 µM ([5]; 72 hours, run 0614-20 min, read-out: viability (survival rate) of Hep3B cells): 91.5%; viability at 10 µM ([5]; 72 hours, run 0616-20 min, read-out: viability (survival rate) of Hep3B cells): 97.9%; viability at 10 µM ([5]; 72 hours, run 0619-20 min, read-out: viability (survival rate) of Hep3B cells): 90.7%; viability at 10 µM ([6]; run 3-4-30 min): 77.5%; viability at 10 µM ([6]; run 3-7-3-30 min): 79.9%; viability at 10 µM ([6]; run 3-7-4-30 min): 51%; viability at 10 µM ([6]; run 3-7-7-30 min): 50%; viability at 10 µM ([7]; 72 h, summary (U2OS), read-out: Inhibitory effect, osteosarcoma): 69.4%; viability at 10 µM ([7]; 72 hours, run 6-26-10 min, read-out: viability (survival rate) of U2OS cells): 53.3%; viability at 10 µM ([7]; 72 hours, run 6-28-10 min, read-out: viability (survival rate) of U2OS cells): 78.3%; viability at 10 µM ([7]; 72 hours, run 6-30-10 min, read-out: viability (survival rate) of U2OS cells): 84.8%; viability at 10 µM ([7]; 72 hours, run 7-3-10 min, read-out: viability (survival rate) of U2OS cells): 61.2%; viability at 10 µM ([8]; run 0602-30 min): 77.7%; viability at 10 µM ([8]; run 0605-10 min): 127%; viability at 10 µM ([8]; run 0607-10 min): 95.7%; viability at 72 h, 10 µM ([9]; HEK293 cells (normal kidney cell line), summary (HEK293), read-out: Inhibitory effect, Normal cell: Kidney cell): 94.2%; viability at 72 h, 10 µM ([9]; HEK293 normal kidney cells, average of 4 tests, read-out: Average viability of HEK293 cells): 94.2%; inhibitory effect on cancer cell lines (in words) (cancers cell lines): significant inhibitory effect; toxicity to normal cells (in words) (normal cells): no toxicity or had little toxicity
